Measured values reported in ChEMBL document CHEMBL3875222, “Benzenesulfonamide bearing imidazothiadiazole and thiazolotriazole scaffolds as potent tumor associated human carbonic anhydrase IX and XII inhibitors” (Bioorg Med Chem, 2017).

Legend:
Carbonic anhydrase 1 = Carbonic anhydrase 1 (Homo sapiens, UniProt P00915); experiment: Inhibition of recombinant human erythrocyte cytosolic carbonic anhydrase 1 by stopped-flow CO2 hydration assay
Carbonic anhydrase 2 = Carbonic anhydrase 2 (Homo sapiens, UniProt P00918); experiment: Inhibition of recombinant human erythrocyte cytosolic carbonic anhydrase 2 by stopped-flow CO2 hydration assay
Carbonic anhydrase 9 = Carbonic anhydrase 9 (Homo sapiens, UniProt Q16790); experiment: Inhibition of recombinant human membrane bound carbonic anhydrase 9 by stopped-flow CO2 hydration assay
Carbonic anhydrase 12 = Carbonic anhydrase 12 (Homo sapiens, UniProt O43570); experiment: Inhibition of recombinant human membrane bound carbonic anhydrase 12 by stopped-flow CO2 hydration assay
Chain of Carbonic anhydrase 12 (O43570 whole entry): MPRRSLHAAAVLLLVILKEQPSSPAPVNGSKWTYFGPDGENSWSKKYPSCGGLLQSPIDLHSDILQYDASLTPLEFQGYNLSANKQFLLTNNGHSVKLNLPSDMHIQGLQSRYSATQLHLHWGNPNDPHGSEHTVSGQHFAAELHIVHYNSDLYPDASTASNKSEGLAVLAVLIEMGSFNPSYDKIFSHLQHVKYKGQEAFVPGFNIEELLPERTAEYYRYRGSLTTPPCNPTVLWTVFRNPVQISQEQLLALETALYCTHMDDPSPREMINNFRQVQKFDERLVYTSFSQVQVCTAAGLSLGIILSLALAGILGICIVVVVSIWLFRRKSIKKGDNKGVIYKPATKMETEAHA

Chain of Carbonic anhydrase 1 (P00915 whole entry): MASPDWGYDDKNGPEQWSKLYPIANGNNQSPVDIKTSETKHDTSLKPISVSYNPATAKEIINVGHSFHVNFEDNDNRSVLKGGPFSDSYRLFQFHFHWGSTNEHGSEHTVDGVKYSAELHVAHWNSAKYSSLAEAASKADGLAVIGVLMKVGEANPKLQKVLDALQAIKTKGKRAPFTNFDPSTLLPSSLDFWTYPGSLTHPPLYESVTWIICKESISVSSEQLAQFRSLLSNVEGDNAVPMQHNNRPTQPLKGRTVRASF

## NS(=O)(=O)c1ccc(-c2nc3scc(-c4ccc(-c5ccccc5)cc4)n3n2)cc1
Carbonic anhydrase 1
  Ki: 97.5 nM
Carbonic anhydrase 2
  Ki: 22.3 nM
Carbonic anhydrase 9
  Ki: 133 nM
Carbonic anhydrase 12
  Ki: 297 nM

## NS(=O)(=O)c1ccc(-c2nc3scc(-c4cccc(Br)c4)n3n2)cc1
Carbonic anhydrase 1
  Ki: 9510 nM
Carbonic anhydrase 2
  Ki: 2570 nM
Carbonic anhydrase 9
  Ki: 1090 nM
Carbonic anhydrase 12
  Ki: 41.4 nM

## Cc1ccc(-c2csc3nc(-c4ccc(S(N)(=O)=O)cc4)nn23)cc1
Carbonic anhydrase 1
  Ki: 79.8 nM
Carbonic anhydrase 2
  Ki: 19.5 nM
Carbonic anhydrase 9
  Ki: 85.1 nM
Carbonic anhydrase 12
  Ki: 23.8 nM

## NS(=O)(=O)c1ccc(-c2nn3cc(-c4ccc(Cl)cc4)nc3s2)cc1
Carbonic anhydrase 1
  Ki: 500 nM
Carbonic anhydrase 2
  Ki: 244 nM
Carbonic anhydrase 9
  Ki: 1210 nM
Carbonic anhydrase 12
  Ki: 80.1 nM

## NS(=O)(=O)c1ccc(-c2nc3scc(-c4ccc([N+](=O)[O-])cc4)n3n2)cc1
Carbonic anhydrase 1
  Ki: 9330 nM
Carbonic anhydrase 2
  Ki: 3860 nM
Carbonic anhydrase 9
  Ki: 189 nM
Carbonic anhydrase 12
  Ki: 35.1 nM

## NS(=O)(=O)c1ccc(-c2nn3cc(-c4cccc([N+](=O)[O-])c4)nc3s2)cc1
Carbonic anhydrase 1
  Ki: 510 nM
Carbonic anhydrase 2
  Ki: 274 nM
Carbonic anhydrase 9
  Ki: 172 nM
Carbonic anhydrase 12
  Ki: 50.4 nM

## NS(=O)(=O)c1ccc(-c2nc3scc(-c4ccc(F)cc4)n3n2)cc1
Carbonic anhydrase 1
  Ki: 662 nM
Carbonic anhydrase 2
  Ki: 301 nM
Carbonic anhydrase 9
  Ki: 237 nM
Carbonic anhydrase 12
  Ki: 359 nM

## COc1ccc(-c2cn3nc(-c4ccc(S(N)(=O)=O)cc4)sc3n2)cc1
Carbonic anhydrase 1
  Ki: 849 nM
Carbonic anhydrase 2
  Ki: 830 nM
Carbonic anhydrase 9
  Ki: 2830 nM
Carbonic anhydrase 12
  Ki: 3.8 nM

## NS(=O)(=O)c1ccc(-c2nn3cc(-c4ccc(F)cc4)nc3s2)cc1
Carbonic anhydrase 1
  Ki: 218 nM
Carbonic anhydrase 2
  Ki: 56.2 nM
Carbonic anhydrase 9
  Ki: 136 nM
Carbonic anhydrase 12
  Ki: 79.4 nM

## Cc1ccc(-c2cn3nc(-c4ccc(S(N)(=O)=O)cc4)sc3n2)cc1
Carbonic anhydrase 1
  Ki: 243 nM
Carbonic anhydrase 2
  Ki: 240 nM
Carbonic anhydrase 9
  Ki: 275 nM
Carbonic anhydrase 12
  Ki: 3.3 nM

## NS(=O)(=O)c1ccc(-c2nc3scc(-c4cccc([N+](=O)[O-])c4)n3n2)cc1
Carbonic anhydrase 1
  Ki: 64.3 nM
Carbonic anhydrase 2
  Ki: 13.2 nM
Carbonic anhydrase 9
  Ki: 203 nM
Carbonic anhydrase 12
  Ki: 362 nM

## NS(=O)(=O)c1ccc(-c2nn3cc(-c4cccc(Br)c4)nc3s2)cc1
Carbonic anhydrase 1
  Ki: 276 nM
Carbonic anhydrase 2
  Ki: 67.6 nM
Carbonic anhydrase 9
  Ki: 251 nM
Carbonic anhydrase 12
  Ki: 75.6 nM

## COc1ccc(-c2csc3nc(-c4ccc(S(N)(=O)=O)cc4)nn23)cc1
Carbonic anhydrase 1
  Ki: 83.3 nM
Carbonic anhydrase 2
  Ki: 15.1 nM
Carbonic anhydrase 9
  Ki: 147 nM
Carbonic anhydrase 12
  Ki: 22.3 nM

## NS(=O)(=O)c1ccc(-c2nn3cc(-c4ccc([N+](=O)[O-])cc4)nc3s2)cc1
Carbonic anhydrase 1
  Ki: 287 nM
Carbonic anhydrase 2
  Ki: 369 nM
Carbonic anhydrase 9
  Ki: 306 nM
Carbonic anhydrase 12
  Ki: 48.1 nM

## NS(=O)(=O)c1ccc(-c2nn3cc(-c4ccc(-c5ccccc5)cc4)nc3s2)cc1
Carbonic anhydrase 1
  Ki: 35.5 nM
Carbonic anhydrase 2
  Ki: 368 nM
Carbonic anhydrase 9
  Ki: 143 nM
Carbonic anhydrase 12
  Ki: 62.1 nM

## NS(=O)(=O)c1ccc(-c2nc3scc(-c4ccc(Cl)cc4)n3n2)cc1
Carbonic anhydrase 1
  Ki: 943 nM
Carbonic anhydrase 2
  Ki: 529 nM
Carbonic anhydrase 9
  Ki: 1680 nM
Carbonic anhydrase 12
  Ki: 26.7 nM

## NS(=O)(=O)c1ccc(-c2nc3scc(-c4ccc(Br)cc4)n3n2)cc1
Carbonic anhydrase 1
  Ki: 9700 nM
Carbonic anhydrase 2
  Ki: 6350 nM
Carbonic anhydrase 9
  Ki: 172 nM
Carbonic anhydrase 12
  Ki: 302 nM

## NS(=O)(=O)c1ccc(-c2nn3cc(-c4ccccc4)nc3s2)cc1
Carbonic anhydrase 1
  Ki: 318 nM
Carbonic anhydrase 2
  Ki: 7.3 nM
Carbonic anhydrase 9
  Ki: 208 nM
Carbonic anhydrase 12
  Ki: 4.1 nM

## NS(=O)(=O)c1ccc(-c2nn3cc(-c4ccc(Br)cc4)nc3s2)cc1
Carbonic anhydrase 1
  Ki: 624 nM
Carbonic anhydrase 2
  Ki: 681 nM
Carbonic anhydrase 9
  Ki: 918 nM
Carbonic anhydrase 12
  Ki: 84.8 nM

## NS(=O)(=O)c1ccc(-c2nc3scc(-c4ccccc4)n3n2)cc1
Carbonic anhydrase 1
  Ki: 17.9 nM
Carbonic anhydrase 2
  Ki: 18.1 nM
Carbonic anhydrase 9
  Ki: 262 nM
Carbonic anhydrase 12
  Ki: 147 nM
